≈ marks a conversion by molar mass, not a printed value. Read-outs that look alike come from different tables or passages of the source.
Legend:
Format in all cases: cell-based
[1] = tested on: Pseudomonas aeruginosa D15; assay: MIC by serial two-fold agar dilution, P. aeruginosa D15; details: Pseudomonas aeruginosa, D15
Description: (§1) The minimum inhibitory concentrations (MIC) of Bu-2659A, B, C, D and E were determined for a variety of gram-positive and gram-negative bacteria by the serial two-fold agar dilution method using the Steer's multi-inoculating apparatus. The inoculum was standardized as a 10^4 dilution of an overnight culture of the test organisms in Heart Infusion Broth (Difco). […] Reference antibiotics utilized in these tests included commercially available neomycin as well as its components, neomycins B and C [as used herein, the term "neomycin" means the commercial product containing neomycins B and C at an approximate ratio of 7:3], paromomycin [the commercial product containing >90% of paromomycin I and <10% of paromomycin II] and ribostamycin.

Proteus rettgeri A15167 = assay: MIC by serial two-fold agar dilution, P. rettgeri A15167; details: Providencia rettgeri, A15167
Description: as §1

[2] = tested on: Pseudomonas aeruginosa A9930; assay: MIC by serial two-fold agar dilution, P. aeruginosa A9930; details: Pseudomonas aeruginosa, A9930
Description: as §1

[3] = tested on: Staphylococcus aureus D136; assay: MIC by serial two-fold agar dilution, S. aureus D136; details: Staphylococcus aureus, D136
Description: as §1

[4] = tested on: Klebsiella pneumoniae D11; assay: MIC by serial two-fold agar dilution, K. pneumoniae D11; details: Klebsiella pneumoniae, D11
Description: as §1

[5] = tested on: gram-positive and gram-negative bacteria; assay: In vitro antibacterial spectra (MIC), overall comparison, Table 7; details: Table 7 organisms
Description: as §1

Proteus morganii A9553 = assay: MIC by serial two-fold agar dilution, P. morganii A9553; details: Morganella morganii, A9553
Description: as §1

Escherichia coli NIHJ = assay: MIC by serial two-fold agar dilution, E. coli NIHJ; details: Escherichia coli
Description: as §1

[6] = tested on: Bacillus subtilis PCI 219; assay: MIC by serial two-fold agar dilution, B. subtilis PCI 219; details: Bacillus subtilis, PCI219
Description: as §1

[7] = tested on: Staphylococcus aureus Smith; assay: MIC by serial two-fold agar dilution, S. aureus Smith; details: Staphylococcus aureus
Description: as §1

[8] = tested on: Staphylococcus aureus 209P; assay: MIC by serial two-fold agar dilution, S. aureus 209P; details: Staphylococcus aureus, 209P
Description: as §1

[9] = tested on: Micrococcus luteus PCI 1001; assay: MIC by serial two-fold agar dilution, M. luteus PCI 1001; details: Micrococcus luteus, PCI1001
Description: as §1

[10] = tested on: Serratia marcescens A20019; assay: MIC by serial two-fold agar dilution, S. marcescens A20019; details: Serratia marcescens, A20019
Description: as §1

Proteus vulgaris A9436 = assay: MIC by serial two-fold agar dilution, P. vulgaris A9436; details: Proteus vulgaris, A9436
Description: as §1

Micrococcus flavus D12 = assay: MIC by serial two-fold agar dilution, M. flavus D12; details: Micrococcus flavus, D12
Description: as §1

Proteus mirabilis A9554 = assay: MIC by serial two-fold agar dilution, P. mirabilis A9554; details: Proteus mirabilis, A9554
Description: as §1

Proteus mirabilis A9906 = assay: MIC by serial two-fold agar dilution, P. mirabilis A9906; details: Proteus mirabilis, A9906
Description: as §1

Escherichia coli Juhl = assay: MIC by serial two-fold agar dilution, E. coli Juhl; details: Escherichia coli
Description: as §1

[11] = Table 7, Mueller-Hinton agar, read-out: MIC

NC[C@H]1O[C@H](O[C@H]2[C@H](O[C@@H]3O[C@H](CO)[C@@H](O[C@H]4O[C@H](CN)[C@@H](O)[C@H](O)[C@H]4N)[C@H]3O)[C@@H](O)[C@H](O)C[C@@H]2N)[C@H](N)[C@@H](O)[C@@H]1O [Bu-2659B, 1-deamino-1-hydroxyneomycin C]
MIC [1, 11]: > 100 µg/mL
MIC (Proteus rettgeri A15167; [11]): 3.1 µg/mL (≈ 5.04 µM)
MIC [2, 11]: > 100 µg/mL
MIC [3, 11]: 6.3 µg/mL (≈ 10.2 µM)
MIC [4, 11]: 1.6 µg/mL (≈ 2.6 µM)
activity relative to Bu-2659A ([5]; as active as Bu-2659A): approximately 1/4
MIC (Proteus morganii A9553; [11]): 12.5 µg/mL (≈ 20.3 µM)
MIC (Escherichia coli NIHJ; [11]): 12.5 µg/mL (≈ 20.3 µM)
MIC [6, 11]: 0.4 µg/mL (≈ 0.65 µM)
MIC [7, 11]: 3.1 µg/mL (≈ 5.04 µM)
MIC [8, 11]: 3.1 µg/mL (≈ 5.04 µM)
MIC [9, 11]: > 100 µg/mL
MIC [10, 11]: 100 µg/mL (≈ 162 µM)
MIC (Proteus vulgaris A9436; [11]): 3.1 µg/mL (≈ 5.04 µM)
MIC (Micrococcus flavus D12; [11]): > 100 µg/mL
MIC (Proteus mirabilis A9554; [11]): 6.3 µg/mL (≈ 10.2 µM)
MIC (Proteus mirabilis A9906; [11]): 6.3 µg/mL (≈ 10.2 µM)
MIC (Escherichia coli Juhl; [11]): 50 µg/mL (≈ 81.2 µM)

NC[C@H]1O[C@H](O[C@H]2[C@H](O[C@@H]3O[C@H](CO)[C@@H](O[C@H]4O[C@@H](CO)[C@@H](O)[C@H](O)[C@H]4N)[C@H]3O)[C@@H](O)[C@H](O)C[C@@H]2N)[C@H](N)[C@@H](O)[C@@H]1O [Bu-2659D, 1,6'"-dideamino-1,6'"-dihydroxyneomycin B]
MIC [1, 11]: > 100 µg/mL
MIC (Proteus rettgeri A15167; [11]): 3.1 µg/mL (≈ 5.03 µM)
MIC [2, 11]: 50 µg/mL (≈ 81.1 µM)
MIC [3, 11]: 25 µg/mL (≈ 40.5 µM)
MIC [4, 11]: 1.6 µg/mL (≈ 2.59 µM)
in vitro antibacterial activity, in words [5]: less active than components B and C
MIC (Proteus morganii A9553; [11]): 12.5 µg/mL (≈ 20.3 µM)
MIC (Escherichia coli NIHJ; [11]): 12.5 µg/mL (≈ 20.3 µM)
MIC [6, 11]: 1.6 µg/mL (≈ 2.59 µM)
MIC [7, 11]: 25 µg/mL (≈ 40.5 µM)
MIC [8, 11]: 6.3 µg/mL (≈ 10.2 µM)
MIC [9, 11]: 100 µg/mL (≈ 162 µM)
MIC [10, 11]: 100 µg/mL (≈ 162 µM)
MIC (Proteus vulgaris A9436; [11]): 3.1 µg/mL (≈ 5.03 µM)
MIC (Micrococcus flavus D12; [11]): 100 µg/mL (≈ 162 µM)
MIC (Proteus mirabilis A9554; [11]): 6.3 µg/mL (≈ 10.2 µM)
MIC (Proteus mirabilis A9906; [11]): 6.3 µg/mL (≈ 10.2 µM)
MIC (Escherichia coli Juhl; [11]): 50 µg/mL (≈ 81.1 µM)

NC[C@H]1O[C@H](O[C@H]2[C@H](O[C@@H]3O[C@H](CO)[C@@H](O[C@H]4O[C@H](CN)[C@@H](O)[C@H](O)[C@H]4N)[C@H]3O)[C@@H](O)[C@H](N)C[C@@H]2N)[C@H](N)[C@@H](O)[C@@H]1O [Neomycin C, neomycin C]
MIC [1]: > 100 µg/mL
MIC (Proteus rettgeri A15167): 1.6 µg/mL (≈ 2.6 µM)
MIC [2]: 50 µg/mL (≈ 81.3 µM)
MIC [3]: 1.6 µg/mL (≈ 2.6 µM)
MIC [4]: 0.4 µg/mL (≈ 0.651 µM)
MIC (Proteus morganii A9553): 3.1 µg/mL (≈ 5.04 µM)
MIC (Escherichia coli NIHJ): 3.1 µg/mL (≈ 5.04 µM)
MIC [6]: < 0.05 µg/mL
MIC [7]: 1.6 µg/mL (≈ 2.6 µM)
MIC [8]: 0.8 µg/mL (≈ 1.3 µM)
MIC [9]: 50 µg/mL (≈ 81.3 µM)
MIC [10]: 6.3 µg/mL (≈ 10.2 µM)
MIC (Proteus vulgaris A9436): 1.6 µg/mL (≈ 2.6 µM)
MIC (Micrococcus flavus D12): 100 µg/mL (≈ 163 µM)
MIC (Proteus mirabilis A9554): 3.1 µg/mL (≈ 5.04 µM)
MIC (Proteus mirabilis A9906): 1.6 µg/mL (≈ 2.6 µM)
MIC (Escherichia coli Juhl): 12.5 µg/mL (≈ 20.3 µM)

NC[C@@H]1O[C@H](O[C@H]2[C@@H](O)[C@H](O[C@@H]3[C@@H](O)[C@H](N)C[C@H](N)[C@H]3O[C@H]3O[C@H](CN)[C@@H](O)[C@H](O)[C@H]3N)O[C@@H]2CO)[C@H](N)[C@@H](O)[C@@H]1O [Neomycin B, neomycin B]
MIC [1]: 3.1 µg/mL (≈ 5.04 µM)
MIC (Proteus rettgeri A15167): 1.6 µg/mL (≈ 2.6 µM)
MIC [2]: 3.1 µg/mL (≈ 5.04 µM)
MIC [3]: 0.4 µg/mL (≈ 0.651 µM)
MIC [4]: 0.2 µg/mL (≈ 0.325 µM)
MIC (Proteus morganii A9553): 3.1 µg/mL (≈ 5.04 µM)
MIC (Escherichia coli NIHJ): 1.6 µg/mL (≈ 2.6 µM)
MIC [6]: < 0.05 µg/mL
MIC [7]: 0.4 µg/mL (≈ 0.651 µM)
MIC [8]: 0.4 µg/mL (≈ 0.651 µM)
MIC [9]: 0.8 µg/mL (≈ 1.3 µM)
MIC [10]: 1.6 µg/mL (≈ 2.6 µM)
MIC (Proteus vulgaris A9436): 0.8 µg/mL (≈ 1.3 µM)
MIC (Micrococcus flavus D12): 1.6 µg/mL (≈ 2.6 µM)
MIC (Proteus mirabilis A9554): 0.8 µg/mL (≈ 1.3 µM)
MIC (Proteus mirabilis A9906): 0.8 µg/mL (≈ 1.3 µM)
MIC (Escherichia coli Juhl): 3.1 µg/mL (≈ 5.04 µM)

Reference: patent publication US4504580A, “Antibiotics produced by fermentation of a novel strain of Streptomyces hygroscopicus” (Bristol-Myers Company, priority 1983, dated 1985)
